Assay results as given in patent US20230391786A1, “cGAS INHIBITORS” (Eli Lilly and Company, priority 2022, published 2023).
Structures can show the parent of a compound that is named as a salt.

Legend:
[1] = biological target: recombinant human cGAS (Homo sapiens (Human), UniProt Q8N884); test: In vitro inhibition assay of cGAS activity (cGAMP production, RapidFire mass spectrometry); format: biochemical; details: 10 nM recombinant human cGAS, 60 nM 75-bp dsDNA, ATP, GTP, room temperature 3 hours, read-out: IC50 (μM), In vitro inhibition assay for Compounds 95-348
Summary of the method: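 Full-length His6-tagged human cGAS (10 nM, E. coli-expressed) was incubated 3 h at room temperature with 60 nM 75-bp dsDNA, ATP, 50 μM GTP and compound at pH 7.5 with 5 mM MgCl2. cGAMP formation was measured by RapidFire mass spectrometry, and IC50 was taken from a 4-parameter logistic fit.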

[2] = tested on: cGAS activity in THP1 cells (IFNb as marker); test: Cellular assay to measure cGAS activity (IFNb production in PMA-differentiated THP1 cells stimulated by RDG-Adenovirus-GFP); format: cell-based, human; details: Homo sapiens, THP-1, THP1 cells, PMA differentiated, RDG-Adenovirus-GFP 1000 MOI, IFNb AlphaLISA, overnight incubation; read-out: IC50 (μM), Cellular assay for Compounds 95-348
Summary of the method: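 PMA-differentiated THP1 cells were infected with RDG-Adenovirus-GFP at 1000 MOI for 4 h, then exposed overnight to test compounds. IFNb in the supernatant was quantified by AlphaLISA as a cGAS activity marker, and IC50 was fitted with a 4-parameter logistic equation.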

Chain of recombinant human cGAS (Q8N884 whole entry): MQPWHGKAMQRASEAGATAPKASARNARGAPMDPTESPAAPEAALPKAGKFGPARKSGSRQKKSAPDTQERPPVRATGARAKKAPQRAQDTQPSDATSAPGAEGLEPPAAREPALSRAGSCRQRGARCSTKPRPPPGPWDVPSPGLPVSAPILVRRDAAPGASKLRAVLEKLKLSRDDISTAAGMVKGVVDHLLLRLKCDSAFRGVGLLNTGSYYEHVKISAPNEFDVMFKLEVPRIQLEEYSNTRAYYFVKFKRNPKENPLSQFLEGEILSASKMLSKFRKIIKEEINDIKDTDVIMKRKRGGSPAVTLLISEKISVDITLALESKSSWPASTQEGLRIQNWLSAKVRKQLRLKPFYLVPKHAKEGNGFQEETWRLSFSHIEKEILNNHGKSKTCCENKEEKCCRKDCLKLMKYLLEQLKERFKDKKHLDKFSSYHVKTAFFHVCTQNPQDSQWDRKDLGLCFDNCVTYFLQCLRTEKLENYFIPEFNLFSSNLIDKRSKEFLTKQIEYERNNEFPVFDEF

Structure (SMILES) | IC50 [1] [µM] | IC50 [2] [µM]
CC(=O)N1CCn2c(c(-c3cn[nH]c3)c3c(NCC#N)cc(Cl)c(Cl)c32)C1 [Example 254, 2-[[2-Acetyl-6,7-dichloro-10-(1H-pyrazol-4-yl)-3,4-dihydro-1H-pyrazino[1,2-a]indol-9-yl]amino]acetonitrile] | 0.03 | 0.938
CCNc1cc(Cl)c(Cl)c2c1c(-c1cn[nH]c1)c1n2CCN(C(C)=O)C1 [Example 255, 1-(6,7-dichloro-9-(ethylamino)-10-(1H-pyrazol-4-yl)-3,4-dihydropyrazino[1,2-a]indol-2(1H)-yl)ethan-1-one hydrochloride] | 0.0326 | 2.09
CC(=O)N1CCn2c(c(-c3cn[nH]c3)c3c(NC(=O)C(F)(F)F)cc(Cl)c(Cl)c32)C1 [Example 256, N-[2-Acetyl-6,7-dichloro-10-(1H-pyrazol-4-yl)-3,4-dihydro-1H-pyrazino[1,2-a]indol-9-yl]-2,2,2-trifluoro-acetamide] | 0.0386 | 4.8
O=C(CO)Nc1nnc(-c2[nH]c3c(Cl)c(Cl)ccc3c2-c2cn[nH]c2)o1 [Example 257, N-[5-[6,7-Dichloro-3-(1H-pyrazol-4-yl)-1H-indol-2-yl]-1,3,4-oxadiazol-2-yl]-2-hydroxy-acetamide] | 0.0235 | > 10
O=C(O)[C@@H]1CCCN1C(=O)c1[nH]c2c(Cl)c(Cl)ccc2c1-c1cn[nH]c1 [Example 258, (2 S)-1-[6,7-Dichloro-3-(1H-pyrazol-4-yl)-1H-indole-2-carbonyl]pyrrolidine-2-carb oxylic acid] | 0.0757 | > 10
CC(=O)N1CCn2c(c(-c3cn[nH]c3)c3c(NC(=O)C(F)F)cc(Cl)c(Cl)c32)C1 [Example 263, N-[2-Acetyl-6,7-dichloro-10-(1H-pyrazol-4-yl)-3,4-dihydro-1H-pyrazino[1,2-a]indol-9-yl]-2,2-difluoro-acetamide] | 0.0173 | 0.509
O=C(Cc1ccn[nH]1)N1CCn2c(c(-c3cn[nH]c3)c3ccc(Cl)c(Cl)c32)C1 [Example 266, 1-[6,7-Dichloro-10-(1H-pyrazol-4-yl)-3,4-dihydro-1H-pyrazino[1,2-a]indol-2-yl]-2-(1H-pyrazol-5-yl)ethanone] | 0.0401 | 9.93
O=C(Cc1cnccn1)N1CCn2c(c(-c3cn[nH]c3)c3ccc(Cl)c(Cl)c32)C1 [Example 267, 1-[6,7-Dichloro-10-(1H-pyrazol-4-yl)-3,4-dihydro-1H-pyrazino[1,2-a]indol-2-yl]-2-pyrazin-2-yl-ethanone] | 0.0399 | 6.27
CC(=O)N1CCn2c(c(-c3cn[nH]c3)c3c(OCC(N)=O)cc(Cl)c(Cl)c32)C1 [Example 268, 2-[[2-Acetyl-6,7-dichloro-10-(1H-pyrazol-4-yl)-3,4-dihydro-1H-pyrazino[1,2-a]indol-9-yl]oxy]acetamide] | 0.0385 | 5.87
NC(=O)COc1cc(Cl)c(Cl)c2c1c(-c1cn[nH]c1)c1n2CCN(C(=O)CO)C1 [Example 269, 2-[[6,7-Dichloro-2-(2-hydroxyacetyl)-10-(1H-pyrazol-4-yl)-3,4-dihydro-1H-pyrazino[1,2-a]indol-9-yl]oxy]acetamide] | 0.0306 | > 10
O=C(Nc1cc(Cl)c(Cl)c2c1c(-c1cn[nH]c1)c1n2CCN(C(=O)CO)C1)C(F)F [Example 272, N-[6,7-Dichloro-2-(2-hydroxyacetyl)-10-(1H-pyrazol-4-yl)-3,4-dihydro-1H-pyrazino[1,2-a]indol-9-yl]-2,2-difluoro-acetamide] | 0.0202 | 0.412
O=C(Nc1cc(Cl)c(Cl)c2c1c(-c1cn[nH]c1)c1n2CCN(C(=O)[C@@H]2COCCO2)C1)C(F)F [Example 273, N-[6,7-Dichloro-2-[(2 S)-1,4-dioxane-2-carbonyl]-10-(1H-pyrazol-4-yl)-3,4-dihydro-1H-pyrazino[1,2-a]indol-9-yl]-2,2-difluoro-acetamide] | 0.0206 | 0.56
O=C(Nc1cc(Cl)c(Cl)c2c1c(-c1cn[nH]c1)c1n2CCN(C(=O)CN2CCOC2=O)C1)C(F)F [Example 274, N-[6,7-Dichloro-2-[2-(2-oxooxazolidin-3-yl)acetyl]-10-(1H-pyrazol-4-yl)-3,4-dihydro-1H-pyrazino[1,2-a]indol-9-yl]-2,2-difluoro-acetamide] | 0.023 | 3.55
CN(C)C(=O)CCC(=O)N1CCn2c(c(-c3cn[nH]c3)c3c(NC(=O)C(F)F)cc(Cl)c(Cl)c32)C1 [Example 275, 4-[6,7-Dichloro-9-[(2,2-difluoroacetyl)amino]-10-(1H-pyrazol-4-yl)-3,4-dihydro-1H-pyrazino[1,2-a]indol-2-yl]-N,N-dimethyl-4-oxo-butanamide] | 0.0284 | 4.01
O=C1CC(CC(=O)N2CCn3c(c(-c4cn[nH]c4)c4c(NC(=O)C(F)F)cc(Cl)c(Cl)c43)C2)CCN1 (stereo not drawn) [Example 276, N-[6,7-Dichloro-2-[2-(2-oxo-4-piperidyl)acetyl]-10-(1H-pyrazol-4-yl)-3,4-dihydro-1H-pyrazino[1,2-a]indol-9-yl]-2,2-difluoro-acetamide] | 0.0405 | > 10
O=C(Nc1cc(Cl)c(Cl)c2c1c(-c1cn[nH]c1)c1n2CCN(C(=O)Cc2cnccn2)C1)C(F)F [Example 277, N-[6,7-Dichloro-2-(2-pyrazin-2-ylacetyl)-10-(1H-pyrazol-4-yl)-3,4-dihydro-1H-pyrazino[1,2-a]indol-9-yl]-2,2-difluoro-acetamide] | 0.0445 | 1.58
OC1Cc2c(-c3cn[nH]c3)c3ccc(Cl)c(Cl)c3n2C1 (stereo not drawn) [Example 278, 5,6-Dichloro-9-(1H-pyrazol-4-yl)-2,3-dihydro-1H-pyrrolo[1,2-a]indol-2-ol] | 0.0391 | 2.19
COCC(=O)N1CCn2c(c(-c3cn[nH]c3)c3c(OCC#N)cc(Cl)c(Cl)c32)C1 [Example 279, 2-((6,7-Dichloro-2-(2-methoxyacetyl)-10-(1H-pyrazol-4-yl)-1,2,3,4-tetrahydropyrazino[1,2-a]indol-9-yl)oxy)acetonitrile] | 0.0072 | 0.74
CC(=O)N1CCn2c(c(-c3cn[nH]c3)c3c(OCC#N)cc(Cl)c(Cl)c32)C1 [Example 280, 2-((2-Acetyl-6,7-dichloro-10-(1H-pyrazol-4-yl)-1,2,3,4-tetrahydropyrazino[1,2-a]indol-9-yl)oxy)acetonitrile] | 0.0087 | 0.872
CN1CCO[C@@H](C(=O)N2CCn3c(c(-c4cn[nH]c4)c4c(OCC#N)cc(Cl)c(Cl)c43)C2)C1 [Example 281, (R)-2-((6,7-Dichloro-2-(4-methylmorpholine-2-carbonyl)-10-(1H-pyrazol-4-yl)-1,2,3,4-tetrahydropyrazino[1,2-a]indol-9-yl)oxy)acetonitrile] | 0.0089 | 1
Cc1nc(C(=O)N2CCn3c(c(-c4cn[nH]c4)c4c(OCC#N)cc(Cl)c(Cl)c43)C2)no1 [Example 282, 2-((6,7-Dichloro-2-(5-methyl-1,2,4-oxadiazole-3-carbonyl)-10-(1H-pyrazol-4-yl)-1,2,3,4-tetrahydropyrazino[1,2-a]indol-9-yl)oxy)acetonitrile] | 0.00896 | 2.99
Cn1cnc(C(=O)N2CCn3c(c(-c4cn[nH]c4)c4c(OCC#N)cc(Cl)c(Cl)c43)C2)n1 [Example 283, 2-((6,7-Dichloro-2-(1-methyl-1H-1,2,4-triazole-3-carbonyl)-10-(1H-pyrazol-4-yl)-1,2,3,4-tetrahydropyrazino[1,2-a]indol-9-yl)oxy)acetonitrile] | 0.0106 | 4.27
N#CCOc1cc(Cl)c(Cl)c2c1c(-c1cn[nH]c1)c1n2CCN(C(=O)CN2CCOC2=O)C1 [Example 284, 2-((6,7-Dichloro-2-(2-(2-oxooxazolidin-3-yl)acetyl)-10-(1H-pyrazol-4-yl)-1,2,3,4-tetrahydropyrazino[1,2-a]indol-9-yl)oxy)acetonitrile] | 0.0124 | 9.75
N#CCOc1cc(Cl)c(Cl)c2c1c(-c1cn[nH]c1)c1n2CCN(C(=O)[C@@H]2COCCO2)C1 [Example 285, (S)-2-((6,7-Dichloro-2-(1,4-dioxane-2-carbonyl)-10-(1H-pyrazol-4-yl)-1,2,3,4-tetrahydropyrazino[1,2-a]indol-9-yl)oxy)acetonitrile] | 0.0126 | 1.19
N#CCOc1cc(Cl)c(Cl)c2c1c(-c1cn[nH]c1)c1n2CCN(C(=O)c2cnccn2)C1 [Example 286, 2-((6,7-Dichloro-2-(pyrazine-2-carbonyl)-10-(1H-pyrazol-4-yl)-1,2,3,4-tetrahydropyrazino[1,2-a]indol-9-yl)oxy)acetonitrile] | 0.0131 | 0.455
N#CCOc1cc(Cl)c(Cl)c2c1c(-c1cn[nH]c1)c1n2CCN(C(=O)Cn2cncn2)C1 [Example 287, 2-((2-(2-(1H-1,2,4-Triazol-1-yl)acetyl)-6,7-dichloro-10-(1H-pyrazol-4-yl)-1,2,3,4-tetrahydropyrazino[1,2-a]indol-9-yl)oxy)acetonitrile] | 0.0203 | 5.11
N#CCOc1cc(Cl)c(Cl)c2c1c(-c1cn[nH]c1)c1n2CCN(C(=O)C2COCCO2)C1 (stereo not drawn) [Example 288, 2-((6,7-Dichloro-2-(1,4-dioxane-2-carbonyl)-10-(1H-pyrazol-4-yl)-1,2,3,4-tetrahydropyrazino[1,2-a]indol-9-yl)oxy)acetonitrile] | 0.0242 | 0.56
